The conditions of data set [1]: in vivo; cited from earlier work.
Data set [2] can be described thus: Deutetrabenazine/deuHTBZ Cmax ratio in humans. In kind it is in vivo.
The nature of data set [3]: Single-dose partial crossover comparative bioavailability study in dogs.
Experimental: The trial was conducted as an open-label, randomized, single-dose, partial crossover comparative bioavailability study. The study was designed to determine the AUC0-t, AUC0-24, Cmax and Tmax of deutetrabenazine and total deuterated α- and β-dihydrotetrabenazine (deuHTBZ) metabolites. The sample group consisted of 4 male beagle dogs. Each dog was administered two treatments. […] A washout period of 14 days was kept before crossing over to the next treatment. Each dog was administered a single oral dose with 10 ml water. Prior to each dose administration, the dogs were pretreated with pentagastrin (to stimulate gastric acid secretion.
Blood samples were collected before dosing and at predetermined time points through 24 hours post-dosing. The samples were analyzed for deutetrabenazine and total deuHTBZ in plasma using an LC-MS/MS method.
Data set [4] in a line: Rat perfusion model, intestinal permeability/absorption.
The nature of another data set: Human [14C]-AME study. Conditions: humans, dosed as powder in capsule (PIC).
Data set [5] can be described thus: Drug solubility at different pH.
Data set [6] is described as follows: Particle size distribution by laser diffractometry (Mastersizer 3000). Type of data set: physicochemical. The following applies: drug substance, dry measurement. The text has this: As used herein, the term “particle size distribution” refers to the statistical distribution of the volume share related of all particle sizes and is represented by D90, D50 or D10 values. The D90 value of the integral volume distribution is defined in the context of this invention as the particle diameter, at which 90 percent by volume of the particles have a smaller diameter than the diameter, which corresponds to the D90 value. For example, a D90 of 15 μm, means that 90% (by volume) of the particles have a diameter less than or equal to 15 μm. A D50 of 10 μm, means that 50% (by volume) of the particles have a diameter less than or equal to 10 μm. A D10 of 3 μm, means that 10% (by volume) of the particles have a diameter less than or equal to 3 μm. Particle size distribution is determined by means of laser diffractometry. More specifically, the particle size distribution is determined using a Mastersizer 3000 from Malvern Instruments.
The deutetrabenazine particle size distributions following manufacture (untreated), milling (quadro co-mill) and micronization (air jet mill) are shown in Table 1.
For dry measurement of the milled and unmilled deutetrabenazine the following settings are preferably used: […]

Here are results for 4 compounds from patent US20230390192A1, “GASTRO RETENTIVE DOSAGE FORMS COMPRISING DEUTETRABENAZINE” (AUSPEX PHARMACEUTICALS, INC., priority 2020, published 2023).

Broadly, the solubility is how much of the substance goes into solution per volume. A lower solubility goes with little dissolved substance. In the case of `[2H]C([2H])([2H])Oc1cc2c(cc1OC([2H])([2H])[2H])[C@H]1CC(=O)[C@H](CC(C)C)CN1CC2` [Deutetrabenazine, (RR,SS)-1,3,4,6,7,11b-hexahydro-9,10-di(methoxy-D3)-3-(2-methylpropyl)-2H-benzo[a]quinolizin-2-one], the “half-life of active metabolites relative to tetrabenazine” value in data set [1] is “increased”. The “deutetrabenazine/deuHTBZ Cmax ratio” value in data set [2] was under 1%; in data set [3], “about 10%”. Besides, the “permeability through the small intestinal (SI) segments” value in data set [4] (rat perfusion model) is reported as “permeable”. For the same compound, the “levels of absorption in the lower GI (rank order of segments)” value in data set [4] (rats) is “Jejunum<Mid-small intestine<Colon<Ileum”. Besides, in data set [4] (rats, lower GI), the ileum absorption entry is “about 0.0006 cm/sec”. In addition, the “radioactive dose recovered in urine” value in “Human [14C]-AME study” is listed as “approximately 80%”. Besides, the solubility result is “relatively good solubility” in data set [5] (acidic environment (pH<4)) and under 2300 µg/mL in data set [5] (pH ≥4).
In data set [6], `[2H]C([2H])([2H])Oc1cc2c(cc1OC([2H])([2H])[2H])C1CC(=O)C(CC(C)C)CN1CC2` (stereo not drawn) [co-milled, deutetrabenazine] showed a D10 of 6.11 μm, a D50 of 33.55 μm and a D90 of 131.55 μm.
The like results for `[2H]C([2H])([2H])Oc1cc2c(cc1OC([2H])([2H])[2H])C1CC(=O)C(CC(C)C)CN1CC2` (stereo not drawn) [micro-milled, deutetrabenazine] were, in that order, 1.08 μm, 3.31 μm and 7.05 μm.
On the same counts, the results for `[2H]C([2H])([2H])Oc1cc2c(cc1OC([2H])([2H])[2H])C1CC(=O)C(CC(C)C)CN1CC2` (stereo not drawn) [unmilled, deutetrabenazine] are 9.08 μm, 59.66 μm and 213.07 μm.
